According to article PMC10700347, “Semisynthesis of 5-O-ester derivatives of renieramycin T and their cytotoxicity against non-small-cell lung cancer cell lines” (Scientific Reports, 2023):
Where two headings read alike, the source gives them in different places.

How the values were obtained:
Format in all cases: cell-based
[1] = tested on: human keratinocyte (HaCaT) cell line; test: MTT cell viability on normal cell line HaCaT; conditions: 24 h, read-out: IC50 ± S.D. HaCaT
Experimental: (§1) DP and BEAS-2B were seeded into 96-well plates at densities of 1 × 10^4 cells per well, while HaCaT cells were seeded at densities of 5 × 10^3 cells per well. The cells were allowed to adhere for 24 h. Subsequently, the cells were treated with various concentrations of compounds 3a–3o, 4a, and 4b at 72 h for DP cells and at 24 h for HaCaT and BEAS-2B cells. After the treatment period, cells were incubated with 0.5 mg/ml of MTT for 2 h. The resulting MTT product was measured at 570 nm using a spectrophotometric microplate reader. Cell viability was calculated by comparing the optical density (OD) measurements to those of the untreated control, and the results were expressed as a percentage.

[2] = tested on: non-tumorigenic bronchial epithelial (BEAS-2B) cell line; test: MTT cell viability on normal cell line BEAS-2B; conditions: BEAS-2B normal cell line, 24 h, read-out: IC50 ± S.D. BEAS-2B
Experimental: as §1

[3] = tested on: dermal papilla (DP) cell line; test: MTT cell viability on normal cell line DP; conditions: 72 h
Experimental: as §1

[4] = tested on: H460 non-small-cell lung cancer cell line; test: cells; conditions: for IC50: H460, MTT, 72 h, read-out: IC50 ± S.D. H460
Experimental: (§2) The in vitro cytotoxicity of all the semisynthesized esters and their precursors against H292 and H460 human NSCLC cell lines was analyzed based on the mitochondrial dehydrogenase activity via the MTT assay[43] (Table 1). The compounds were tested at doses of 1–250 nM. Cisplatin and doxorubicin, which are the standard chemotherapeutic drugs for the treatment of NSCLC, were used as positive controls. […] However, the extended use of 1 is limited by the concerns for unwanted necrosis, which is an unprogrammed form of cell death caused by the presence of two quinone moieties. […] The IC50 values of the 5-O-ester derivatives 3a, 3b, 3d, 3h, 3i, and 3k were in the same range as the mother compound 1.
(§3) The in vitro cytotoxicity of compounds 3a–3o, 4a, and 4b was determined against the H292 and H460 NSCLC cell lines by the MTT colorimetric assay. Each compound was dissolved in DMSO to prepare a 10 mM stock solution. Both the H292 and H460 cells were cultured in RPMI 1640 medium supplemented with 2 mM L-glutamine, 10% FBS, and 100 units/mL of penicillin–streptomycin at 37 °C under 5% CO2. The NSCLC cells were trypsinized and seeded with a density of 5 × 10^3 cells/well in a 96-well plate, followed by overnight incubation. Serial dilutions of the test compounds ranging from 1 to 250 nM were prepared in the presence of DMSO (< 0.2% v/v). […] After incubation, formazan crystals were solubilized by adding 100 µL of DMSO, and their absorbance was measured at 570 nm by a spectrophotometric microtiter plate reader (PerkinElmer Victor 3 1420 Multilabel Plate Counter). Cell viability was calculated as the percentage of nontreated control cells. The mean IC50 values were obtained from three independent experiments. Each experiment was conducted in triplicate with at least five concentrations of the tested compounds. The GraphPad Prism software (version 5) was used to calculate the average IC50 and standard deviation (S.D.) values for each experiment. Cisplatin and doxorubicin were used as the positive controls, while 0.2% DMSO served as the negative control.

[5] = tested on: H292 non-small-cell lung cancer cell line; test: cells; conditions: for IC50: H292, MTT, 72 h, read-out: IC50 ± S.D. H292
Experimental: as §2, §3

SMILES | IC50 ([1]; Homo sapiens) [nM] | IC50 ([2]; Homo sapiens) [nM] | IC50 [3] [nM] | Reduction in cytotoxicity against H460 [4] | IC50 ([4]; Homo sapiens, NCI-H460) [nM] | Reduction in cytotoxicity against H292 [5] [fold] | IC50 ([5]; Homo sapiens, NCI-H292) [nM] | IC50 [1] [nM] | IC50 [2] [nM] | IC50 [4] [nM] | IC50 [5] [nM]
C/C=C(/C)C(=O)OC[C@H]1C2=C(C[C@H]3[C@H]4C5=C(C[C@@H]([C@H](C#N)N13)N4C)C(=O)C(C)=C(OC)C5=O)C(=O)C(C)=C(OC(=O)c1cccnc1)C2=O [Compound 4b, 7-O-(3-pyridinecarbonyl) ester derivative of renieramycin S] | 192 ± 22.2 | > 250 | 67.5 ± 5.46 | fivefold | 104 ± 2.2 | 3 | 100 ± 1.59 |  |  |  | 
C/C=C(/C)C(=O)OC[C@H]1c2c(c(OC(=O)[C@H](Cc3ccccc3)NC(=O)OC(C)(C)C)c(C)c3c2OCO3)C[C@H]2[C@H]3C4=C(C[C@@H]([C@H](C#N)N12)N3C)C(=O)C(C)=C(OC)C4=O [Compound 3f] | 61.2 ± 3.43 | 181 ± 12.1 | 39.8 ± 9.88 |  | 50.7 ± 3.5 |  | 54.1 ± 4.78 |  |  |  | 
N.N.[Cl][Pt][Cl] [Cisplatin, reference compound] |  |  | 10800 |  |  |  |  | 14300 | > 20000 | 3860 | 4230
CC=C(C)C(=O)OCC1c2c(c(OC(C)=O)c(C)c3c2OCO3)CC2C3C4=C(CC(C(C#N)N12)N3C)C(=O)C(C)=C(OC)C4=O (stereo not drawn) [Compound 3a, 5-O-acetyl renieramycin T] | 9.49 ± 2.12 | > 250 | 11.7 ± 0.59 |  | 35.7 ± 2.11 |  | 43.4 ± 3 |  |  |  | 
C/C=C(/C)C(=O)OC[C@H]1C2=C(C[C@H]3[C@H]4C5=C(C[C@@H]([C@H](C#N)N13)N4C)C(=O)C(C)=C(OC)C5=O)C(=O)C(C)=C(OC(=O)CC)C2=O [Compound 4a, 7-O-(propanoyl) ester derivative of renieramycin S] | 230 ± 22.7 | > 250 | 77.4 ± 9.9 | fivefold | 164 ± 4.16 | 3 | 99.87 ± 0.91 |  |  |  | 
C/C=C(/C)C(=O)OC[C@H]1c2c(c(OC(=O)[C@@H](NC(=O)OC(C)(C)C)C(C)C)c(C)c3c2OCO3)C[C@H]2[C@H]3C4=C(C[C@@H]([C@H](C#N)N12)N3C)C(=O)C(C)=C(OC)C4=O [Compound 3e] | 80.2 ± 4.1 | > 250 | 50 ± 1.49 |  | 76.1 ± 2.77 |  | 89.6 ± 5.03 |  |  |  | 
C/C=C(/C)C(=O)OC[C@H]1c2c(c(OC(=O)CNC(=O)OC(C)(C)C)c(C)c3c2OCO3)C[C@H]2[C@H]3C4=C(C[C@@H]([C@H](C#N)N12)N3C)C(=O)C(C)=C(OC)C4=O [Compound 3c] | 23.1 ± 1.38 | > 250 | 5.35 ± 0.27 |  | 41.6 ± 4.15 |  | 39 ± 5.63 |  |  |  | 
C/C=C(/C)C(=O)OC[C@H]1c2c(c(OC(=O)c3ccco3)c(C)c3c2OCO3)C[C@H]2[C@H]3C4=C(C[C@@H]([C@H](C#N)N12)N3C)C(=O)C(C)=C(OC)C4=O [Compound 3m] | 42.1 ± 3.13 | > 250 | 25.29 ± 0.24 |  | 42.9 ± 5.21 |  | 42.5 ± 3.84 |  |  |  | 
CC=C(C)C(=O)OCC1c2c(c(O)c(C)c3c2OCO3)CC2C3C4=C(CC(C(C#N)N12)N3C)C(=O)C(C)=C(OC)C4=O (stereo not drawn) [Compound 2, renieramycin T] | 89.2 ± 4.29 | 163 ± 24.2 | 51 ± 0.08 |  | 84 ± 3.63 |  | 72.8 ± 2.88 |  |  |  | 
C/C=C(/C)C(=O)OC[C@H]1c2c(c(OC(=O)c3ccncc3)c(C)c3c2OCO3)C[C@H]2[C@H]3C4=C(C[C@@H]([C@H](C#N)N12)N3C)C(=O)C(C)=C(OC)C4=O [Compound 3h] | 53.8 ± 7.07 | 223 ± 23.1 | 4.83 ± 2.18 |  | 35.6 ± 1.64 |  | 35.3 ± 1.09 |  |  |  | 
COc1cccc2c1C(=O)c1c(O)c3c(c(O)c1C2=O)C[C@@](O)(C(=O)CO)C[C@@H]3O[C@H]1C[C@H](N)[C@H](O)[C@H](C)O1 [Doxorubicin, reference compound] | 915 ± 50.2 | 663 | 58 ± 24.4 |  | 43.9 ± 6.26 |  | 40.8 ± 6.89 |  |  |  | 
C/C=C(/C)C(=O)OC[C@H]1c2c(c(OC(=O)/C=C/c3cccnc3)c(C)c3c2OCO3)C[C@H]2[C@H]3C4=C(C[C@@H]([C@H](C#N)N12)N3C)C(=O)C(C)=C(OC)C4=O [Compound 3k] | 9.64 ± 0.93 | 114 ± 13.2 | 8.36 ± 2.31 |  | 38.8 ± 7.25 |  | 36.3 ± 2.06 |  |  |  | 
C/C=C(/C)C(=O)OC[C@H]1c2c(c(OC(=O)c3cccs3)c(C)c3c2OCO3)C[C@H]2[C@H]3C4=C(C[C@@H]([C@H](C#N)N12)N3C)C(=O)C(C)=C(OC)C4=O [Compound 3n, 5-O-(2-thiophenecarbonyl) ester] | 139 ± 6.16 | > 250 | 68.6 ± 6.25 |  | 123 ± 4.99 |  | 137 ± 6.3 |  |  |  | 
C/C=C(/C)C(=O)OC[C@H]1c2c(c(OC(=O)c3c[nH]c4ccccc34)c(C)c3c2OCO3)C[C@H]2[C@H]3C4=C(C[C@@H]([C@H](C#N)N12)N3C)C(=O)C(C)=C(OC)C4=O [Compound 3l] | 109 ± 6.99 | > 250 | 72.1 ± 3.01 |  | 57.9 ± 0.77 |  | 69.4 ± 1.61 |  |  |  | 
C/C=C(/C)C(=O)OC[C@H]1c2c(c(OC(=O)c3ccc4ccccc4n3)c(C)c3c2OCO3)C[C@H]2[C@H]3C4=C(C[C@@H]([C@H](C#N)N12)N3C)C(=O)C(C)=C(OC)C4=O [Compound 3i, 5-O-(2-quinolinecarbonyl) ester] | 28 ± 3.76 | 151 ± 19 | 8.77 ± 1.94 |  | 43.3 ± 4.29 |  | 36.5 ± 1.82 |  |  |  | 
C/C=C(/C)C(=O)OC[C@H]1c2c(c(OC(=O)c3cnc4ccccc4c3)c(C)c3c2OCO3)C[C@H]2[C@H]3C4=C(C[C@@H]([C@H](C#N)N12)N3C)C(=O)C(C)=C(OC)C4=O [Compound 3j, 5-O-(3-quinolinecarbonyl) ester] | 109 ± 7.38 | > 250 | 37.6 ± 0.47 |  | 86.1 ± 6.34 |  | 77.8 ± 5.79 |  |  |  | 
C/C=C(/C)C(=O)OC[C@H]1c2c(c(OC(=O)c3ccc[nH]3)c(C)c3c2OCO3)C[C@H]2[C@H]3C4=C(C[C@@H]([C@H](C#N)N12)N3C)C(=O)C(C)=C(OC)C4=O [Compound 3o] | 65.2 ± 1.52 | 220 ± 29.7 | 50 ± 7.81 |  | 58.3 ± 3.56 |  | 56.9 ± 2.66 |  |  |  | 
C/C=C(/C)C(=O)OC[C@H]1c2c(c(OC(=O)[C@H](C)NC(=O)OC(C)(C)C)c(C)c3c2OCO3)C[C@H]2[C@H]3C4=C(C[C@@H]([C@H](C#N)N12)N3C)C(=O)C(C)=C(OC)C4=O [Compound 3d, 5-O-(N-Boc-L-alanine)-renieramycin T] | 58.5 ± 6.68 | 232 ± 26.1 | 25.8 ± 1.05 |  | 33 ± 1.55 |  | 39.5 ± 1.18 |  |  |  | 
C/C=C(/C)C(=O)OC[C@H]1c2c(c(OC(=O)c3ccccn3)c(C)c3c2OCO3)C[C@H]2[C@H]3C4=C(C[C@@H]([C@H](C#N)N12)N3C)C(=O)C(C)=C(OC)C4=O [Compound 3g] | 74.3 ± 6.88 | > 250 | 35.2 ± 4.13 |  | 43.6 ± 1.36 |  | 51.5 ± 1.67 |  |  |  | 
